Measured values: PubChem BioAssay (NCI)
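Where inhibition never reached the appropriate level, the endpoint shown equals the highest concentration tested. Otherwise, values were interpolated linearly from a five-concentration, 48-hour dose response in 96-well plates. GI50 = concentration required for 50% inhibition of growth. At the TGI there is no net growth.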

Assays:
Test in all cases: NCI anticancer screen, dose series, 48 h
[1] = test system: CCRF-CEM leukemia
[2] = test system: SF-539 CNS
[3] = test system: K-562 leukemia
[4] = test system: RPMI-8226 leukemia
[5] = test system: U251 CNS
[6] = test system: DU-145 prostate
[7] = test system: RXF 393 renal
[8] = test system: HOP-92 NSCLC
[9] = test system: SW-620 colon
[10] = test system: MCF7 breast
[11] = test system: SNB-75 CNS
[12] = test system: OVCAR-3 ovarian
[13] = test system: UACC-62 melanoma
[14] = test system: UO-31 renal
[15] = test system: A549 NSCLC
[16] = test system: SR leukemia
[17] = test system: HCT-15 colon
[18] = test system: TK-10 renal
[19] = test system: SF-268 CNS
[20] = test system: OVCAR-4 ovarian
[21] = test system: PC-3 prostate
[22] = test system: HOP-62 NSCLC
[23] = test system: NCI-H460 lung
[24] = test system: EKVX NSCLC
[25] = test system: T-47D breast
[26] = test system: SK-MEL-28 melanoma
[27] = test system: SK-OV-3 ovarian
[28] = test system: HCT-116 colon
[29] = test system: HL-60(TB) leukemia
[30] = test system: NCI/ADR-RES ovarian
[31] = test system: SK-MEL-5 melanoma
[32] = test system: SNB-19 CNS
[33] = test system: IGROV1 ovarian
[34] = test system: KM12 colon
[35] = test system: HT29 colon
[36] = test system: SF-295 CNS
[37] = test system: BT-549 breast
[38] = test system: HCC-2998 colon
[39] = test system: SK-MEL-2 melanoma
[40] = test system: NCI-H226 lung
[41] = test system: MDA-MB-231 breast
[42] = test system: A498 renal
[43] = test system: MALME-3M melanoma
[44] = test system: LOX IMVI melanoma
[45] = test system: UACC-257 melanoma
[46] = test system: CAKI-1 renal
[47] = test system: OVCAR-8 ovarian
[48] = test system: MDA-MB-435
[49] = test system: NCI-H23 lung
[50] = test system: OVCAR-5 ovarian
[51] = test system: M14 melanoma
[52] = test system: COLO 205 colon
[53] = test system: HS 578T breast
[54] = test system: MOLT-4 leukemia
[55] = test system: 786-0 renal
[56] = test system: ACHN renal
[57] = test system: SN12C renal

Q: How did the GI50 [1] turn out when `Cc1cc(Nc2cc(N3CCN(C)CC3)nc(C#Cc3ccccc3)n2)n[nH]1` was run?
A: 6.89 µM

Q: What about the TGI [1] of the same compound?
A: > 69.5 µM

Q: What about the GI50 [2] of the same compound?
A: 2.79 µM

Q: What about the TGI [2] of the same compound?
A: 10.8 µM

Q: What about the GI50 [3] of the same compound?
A: 3.79 µM

Q: And the TGI [3]?
A: 24.4 µM

Q: What about the GI50 [4] of the same compound?
A: 12.6 µM

Q: And the TGI [4]?
A: 59.3 µM

Q: And the GI50 [5]?
A: 3.52 µM

Q: And the TGI [5]?
A: 16.9 µM

Q: And the GI50 [6]?
A: 4.18 µM

Q: And the TGI [6]?
A: 18.2 µM

Q: What about the GI50 [7] of the same compound?
A: 1.18 µM

Q: And the TGI [7]?
A: 3.79 µM

Q: And the GI50 [8]?
A: 0.843 µM

Q: And the TGI [8]?
A: 4.84 µM

Q: And the GI50 [9]?
A: 2.72 µM

Q: What about the TGI [9] of the same compound?
A: 14.4 µM

Q: What about the GI50 [10] of the same compound?
A: 2.31 µM

Q: What about the TGI [10] of the same compound?
A: 13.1 µM

Q: What about the GI50 [11] of the same compound?
A: 0.725 µM

Q: What about the TGI [11] of the same compound?
A: 2.91 µM

Q: And the GI50 [12]?
A: 4.46 µM

Q: And the TGI [12]?
A: 17.8 µM

Q: And the GI50 [13]?
A: 2.45 µM

Q: What about the TGI [13] of the same compound?
A: 15.1 µM

Q: And the GI50 [14]?
A: 1.07 µM

Q: What about the TGI [14] of the same compound?
A: 7.28 µM

Q: And the GI50 [15]?
A: 2.81 µM

Q: And the TGI [15]?
A: 13.3 µM

Q: What about the GI50 [16] of the same compound?
A: 3.47 µM

Q: What about the TGI [16] of the same compound?
A: 20.4 µM

Q: And the GI50 [17]?
A: 2.23 µM

Q: What about the TGI [17] of the same compound?
A: 15.5 µM

Q: What about the GI50 [18] of the same compound?
A: 0.897 µM

Q: And the TGI [18]?
A: 6.79 µM

Q: And the GI50 [19]?
A: 3.82 µM

Q: And the TGI [19]?
A: 16.8 µM

Q: What about the GI50 [20] of the same compound?
A: 1.7 µM

Q: What about the TGI [20] of the same compound?
A: 13.3 µM

Q: And the GI50 [21]?
A: 3.17 µM

Q: What about the TGI [21] of the same compound?
A: 25.4 µM

Q: And the GI50 [22]?
A: 3.19 µM

Q: What about the TGI [22] of the same compound?
A: 13.9 µM

Q: What about the GI50 [23] of the same compound?
A: 2.07 µM

Q: What about the TGI [23] of the same compound?
A: 13 µM

Q: What about the GI50 [24] of the same compound?
A: 11 µM

Q: And the TGI [24]?
A: 23.4 µM

Q: And the GI50 [25]?
A: 4.86 µM

Q: What about the TGI [25] of the same compound?
A: 23 µM

Q: What about the GI50 [26] of the same compound?
A: 5.05 µM

Q: What about the TGI [26] of the same compound?
A: 18.3 µM

Q: And the GI50 [27]?
A: 2.16 µM

Q: And the TGI [27]?
A: 13.2 µM

Q: And the GI50 [28]?
A: 1.4 µM

Q: What about the TGI [28] of the same compound?
A: 12.7 µM

Q: And the GI50 [29]?
A: 2.52 µM

Q: What about the TGI [29] of the same compound?
A: 14.8 µM

Q: And the GI50 [30]?
A: 4.98 µM

Q: What about the TGI [30] of the same compound?
A: 28.8 µM

Q: And the GI50 [31]?
A: 4.32 µM

Q: And the TGI [31]?
A: 16.5 µM

Q: What about the GI50 [32] of the same compound?
A: 5.59 µM

Q: And the TGI [32]?
A: 19.5 µM

Q: And the GI50 [33]?
A: 1.13 µM

Q: And the TGI [33]?
A: 6.05 µM

Q: What about the GI50 [34] of the same compound?
A: 0.35 µM

Q: And the TGI [34]?
A: 11.7 µM

Q: And the GI50 [35]?
A: 2.02 µM

Q: And the TGI [35]?
A: 8.08 µM

Q: What about the GI50 [36] of the same compound?
A: 3.39 µM

Q: What about the TGI [36] of the same compound?
A: 16.8 µM

Q: And the GI50 [37]?
A: 4.68 µM

Q: And the TGI [37]?
A: 17.8 µM

Q: And the GI50 [38]?
A: 2.71 µM

Q: And the TGI [38]?
A: 13.1 µM

Q: What about the GI50 [39] of the same compound?
A: 1.24 µM

Q: What about the TGI [39] of the same compound?
A: 7.9 µM

Q: What about the GI50 [40] of the same compound?
A: 2.17 µM

Q: And the TGI [40]?
A: 14.3 µM

Q: And the GI50 [41]?
A: 3.82 µM

Q: What about the TGI [41] of the same compound?
A: 16.5 µM

Q: What about the GI50 [42] of the same compound?
A: 0.703 µM

Q: What about the TGI [42] of the same compound?
A: 3.68 µM

Q: What about the GI50 [43] of the same compound?
A: 2 µM

Q: What about the TGI [43] of the same compound?
A: 13.9 µM

Q: What about the GI50 [44] of the same compound?
A: 1.85 µM

Q: And the TGI [44]?
A: 12.8 µM

Q: What about the GI50 [45] of the same compound?
A: 3.58 µM

Q: What about the TGI [45] of the same compound?
A: 15.9 µM

Q: What about the GI50 [46] of the same compound?
A: 0.945 µM

Q: What about the TGI [46] of the same compound?
A: 8.71 µM

Q: What about the GI50 [47] of the same compound?
A: 6.5 µM

Q: And the TGI [47]?
A: 22.3 µM

Q: And the GI50 [48]?
A: 3.24 µM

Q: What about the TGI [48] of the same compound?
A: 16.1 µM

Q: What about the GI50 [49] of the same compound?
A: 3.25 µM

Q: What about the TGI [49] of the same compound?
A: 18.5 µM

Q: And the GI50 [50]?
A: 3.58 µM

Q: And the TGI [50]?
A: 18.8 µM

Q: And the GI50 [51]?
A: 1.4 µM

Q: What about the TGI [51] of the same compound?
A: 14.7 µM

Q: What about the GI50 [52] of the same compound?
A: 1.69 µM

Q: What about the TGI [52] of the same compound?
A: 4.62 µM

Q: And the GI50 [53]?
A: 1.74 µM

Q: What about the TGI [53] of the same compound?
A: 6.22 µM

Q: What about the GI50 [54] of the same compound?
A: 3.46 µM

Q: What about the TGI [54] of the same compound?
A: 19.2 µM

Q: And the GI50 [55]?
A: 3.13 µM

Q: What about the TGI [55] of the same compound?
A: 14.2 µM

Q: And the GI50 [56]?
A: 1.06 µM

Q: And the TGI [56]?
A: 11.7 µM

Q: What about the GI50 [57] of the same compound?
A: 2.4 µM

Q: And the TGI [57]?
A: 14.2 µM
